Laboratory results reported in patent publication US11918577B2, “Dipeptidyl peptidase-4 inhibitors for topical eye treatment of retinal neurodegenerative diseases” (FUNDACIÓ HOSPITAL UNIVERSITARI VALL D'HEBRON - INSTITUT DE …, priority 2016, dated 2024).

Legend:
db/db mice = conditions: orally administered, diabetic mice (db/db); cited from earlier work
C. Elegans = conditions: high glucose levels, no GLP-1R expression; cited from earlier work
[1] = tested on: GLP-1 and its main downstream messenger cAMP; assay: Intraretinal content of GLP-1 and cAMP in db/db mice, eye drops (data not shown); type: in vivo, mouse
Text: Without being bound to any theory, inventors consider that, in fact, the DPP-4 inhibitors themselves activate unrelated downstream GLP-1R pathways that might be involved in neuroprotection.

db/db mouse [2] = assay: Retinal apoptosis (TUNEL) in db/db mice, eye drops; type: in vivo; conditions: eye drops for two weeks, ONL, INL, GCL, vs vehicle
Text: (§1) It has been reported that db/db mice reproduce the features of the neurodegenerative process that occurs in the human diabetic eye. Therefore, it is an appropriate model for testing neuroprotective drugs (according to Bogdanov et al., “The db/db mouse: a useful model for the study of diabetic retinal neurodegeneration”, PLoS One—2014, vol. no. 9(5):e97302). A total of 20 male db/db (BKS.Cg-+Lepr db/+Lepr db/OlaHsd) mice aged 10 weeks were purchased from Harlan Laboratories, Inc. In addition, 10 non-diabetic (db/+) mice matched by age were used as control group.
(§2) This study was approved by the Animal Care and Use Committee of VHIR (Vali d′Hebron Research Institute). All the experiments were performed in accordance with the tenets of the European Community (86/609/CEE) and ARVO (Association for Research in Vision and Ophthalmology).
The TUNEL (Terminal Transferase dUTP Nick-End Labeling) staining was carried out using the DeadEnd Fluorometric TUNEL System kit (PROMEGA, Madison, WI, USA). Cryosections of retina were permeabilised by incubation for 2 min on ice with 0.1% Triton X-100 in 0.1% sodium citrate, freshly prepared. The secondary antibody was Alexa 488 goat-anti-rabbit (Invitrogen, San Diego CA, USA). For evaluation by Laser Scanning Confocal microscopy the excitation wavelength was 488 nm and detection in the range of 515-565 nm (green) was used. […]

[3] = tested on: GLAST (glutamate-aspartate transporter); assay: GLAST immunofluorescence in retina of db/db mice, eye drops; type: in vivo, mouse
Text: as §1, §2
GLAST (glutamate-aspartate transporter), the main glutamate transporter, was evaluated by fluorescence microscopy using specific antibodies. GLAST was evaluated by fluorescence microscopy using specific antibodies [rabbit anti-GLAST (EAAT1) (1:100, Abcam ab416, Cambridge, UK).
(§3) The design and methodology were the same than used in Example 2.

db/db mouse [4] = assay: Blood-retinal barrier: albumin leakage (Evans blue, albumin immunofluorescence) in db/db mice, eye drops; type: in vivo; conditions: for albumin leakage (extravasation of albumin): vs vehicle
Text: as §1, §2
In the lower panel FIG. 6(B) the quantification of albumin immunofluorescence of digital images with Fluoview FV 1000 Laser Scanning Microscope is shown. Immunohistochemistry images of Fluoview FV 1000 Laser Scanning Microscope from which quantification of albumina (in red) was done are not shown. The three type of samples tested were: D-Sham, D-SAXAGLIPTIN and C (db/+). Results are the mean±SD. *p <0.05 between db/db treated with vehicle (D-Sham) and the other groups.
as §3
In the lower panel FIG. 9(B) the quantification of albumin immunofluorescence of digital images with Fluoview FV 1000 Laser Scanning Microscope is shown. Immunohistochemistry images of Fluoview FV 1000 Laser Scanning Microscope from which quantification of albumina (in red) was done are not shown. The three type of samples tested were: D-Sham, D-Sitagliptin and C (db/+). Results are the mean±SD. *p<0.05 between db/db treated with vehicle (D-Sham) and the other groups.

db/db mouse [5] = assay: Glial activation (GFAP staining score) in retina of db/db mice, eye drops; type: in vivo; conditions: for GFAP score of the treated mice / reactive gliosis: eye drops for two weeks; for GFAP score of the treated mice: all cases, scale 1-5; for reactive gliosis: vs vehicle
Text: as §1, §2
Glial activation was evaluated by Laser Scanning Confocal microscopy using specific antibodies against GFAP (Glial fibrillar acidic protein). Sections were fixed in acid methanol (−20° C.) for 2 min, followed by three washes with PBS, 5 min each. Sections were permeabilized with TBS-Triton X-100 0.025% and were incubated in blocker (1% BSA, and 10% goat serum in PBS) for 2 hours at room temperature. Sections were then incubated with rabbit anti-GFAP (Abcam Ltd, Cambridge, U.K.) (1:500 dilution prepared in blocking solution) overnight at 4° C. in a humid atmosphere. After three washes in PBS, 5 min each, the sections were incubated with secondary antibody Alexa 488 goat-anti-rabbit (Invitrogen) (1:200 dilution prepared in blocking solution). The sections were washed three times in PBS, counterstained with Hoestch and mounted with Mounting Medium Fluorescence (Prolong, Invitrogen) and mounted with a coverslip. Comparative digital images from samples were recorded with a Fluoview FV 1000 Laser Scanning Confocal Microscope Olympus using identical brightness and contrast settings.
To evaluate the degree of glial activation it was used a scoring system based on the extent of GFAP staining previously described (Anderson et al., “Glial and endothelial blood-retinal barrier responses to amyloid-beta in the neural retina of the rat”, Clin Ophthalmol—2008, vol. no. 2, pp.:801-816). This scoring system was as follows: Müller cell endfeet region/GCL only (score 1); Müller cell endfeet region/GCL plus a few proximal processes (score 2); Müller cell endfeet plus many processes, but not extending to ONL (score 3); Müller cell endfeet plus processes throughout with some in the ONL (score 4); Müller cell endfeet plus lots of dark processes from GCL to outer margin of ONL (score 5).
The scoring system was as follows: Müller cell endfeet region/GCL only (score 1); Müller cell endfeet region/GCL plus a few proximal processes (score 2); Müller cell endfeet plus many processes, but not extending to ONL (score 3); Müller cell endfeet plus processes throughout with some in the ONL (score 4); Müller cell endfeet plus lots of dark processes from GCL to outer margin of ONL (score 5). n=10 mice per group (5 retinal sections per mice).
as §3

db/db mouse [6] = assay: Retinal glutamate quantification (UPLC) in db/db mice, eye drops; type: in vivo; conditions: p<0.05
Text: as §1, §2
Quantification of glutamate was performed by reverse phase ultra-performance liquid chromatography (UPLC) (Acquity-UPLC, Waters) as aminoquinoline derivatives (AccQ-Tag chemistry, MassTrak AAA method and instruments, Waters, Milford, MA).
as §3

db/db mouse [7] = assay: Full field electroretinography (ERG) in db/db mice, eye drops; type: in vivo
Method: Full field electroretinography (ERG) recordings were measured using the Ganzfeld ERG platform (Phoenix Research Laboratories, Pleasanton, CA) following ISCEV (International Society for Clinical Electrophysiology of Vision) recommendations (according to Marmor et al., “Standard for clinical electroretinography.”, International Society for Clinical Electrophysiology of Vision (2004), Doc Ophthalmol—2004; vol. 108, pp.:107-114).

[8] = administered in the form of eye drops; cited from earlier work

SMILES	intraretinal content of GLP-1 [1]	intraretinal content of cAMP [1]	apoptosis (TUNEL positive cells) in retinal layers (db/db mouse [2])	downregulation of GLAST induced by diabetes [3]	albumin leakage (extravasation of albumin) (db/db mouse [4])	GFAP score of the treated mice (db/db mouse [5])	reactive gliosis (db/db mouse [5])	retinal glutamate concentration vs diabetic mice treated with vehicle (db/db mouse [6])	other results
N[C@@H](CC(=O)N1CCc2c(nc(C(F)(F)F)nc2C(F)(F)F)C1)CN1CC(F)(F)CCC1=O [Gemigliptin, (3S)-3-amino-4-(5,5-difluoro-2-oxopiperidino)-1-[2,4-di(trifluoromethyl)-5,6,7,8-tetrahydropyrido[3,4-d]pyrimidin-7-yl]butan-1-one]	–	–	–	–	–	–	–	–	retinal pericyte apoptosis (db/db mice): ameliorate; vascular leakage (db/db mice): ameliorate
CC#CCn1c(N2CCC[C@@H](N)C2)nc2c1c(=O)n(Cc1nc(C)c3ccccc3n1)c(=O)n2C [Linagliptin, 8-[(3R)-3-aminopiperidin-1-yl]-7-(but-2-yn-1-yl)-3-methyl-1-[(4-methylquinazolin-2-yl)methyl]-3,7-dihydro-1H-purine-2,6-dione]	–	–	–	–	–	–	–	–	neuroprotective effect (C. Elegans): neuroprotective effect
N#C[C@@H]1C[C@@H]2C[C@@H]2N1C(=O)[C@@H](N)C12CC3CC(CC(O)(C3)C1)C2 [Saxagliptin, (1S,3S,5S)-2-[(2S)-2-amino-2-(3-hydroxy-1-adamantyl)acetyl]-2-azabicyclo[3.1.0]hexane-3-carbonitrile]	significant increase	significant increase	significant prevention of apoptosis in all retinal layers	prevented	prevented albumin leakage	< 3	significant decrease	significantly lower	% positive GFAP labeling, score 1 (db/db mouse [5]; eye drops twice daily for 14 days, score 1: Müller cell endfeet region/GCL only): 95.00%; % positive GFAP labeling, score 2 (db/db mouse [5]; eye drops twice daily for 14 days, score 2: endfeet region/GCL plus a few proximal processes): 5.00%; % positive GFAP labeling, score 3 (db/db mouse [5]; eye drops twice daily for 14 days, score 3: endfeet plus many processes, not extending to ONL): 0.00%; % positive GFAP labeling, score 4 (db/db mouse [5]; eye drops twice daily for 14 days, score 4: endfeet plus processes throughout with some in the ONL): 0.00%; % positive GFAP labeling, score 5 (db/db mouse [5]; eye drops twice daily for 14 days, score 5: lots of dark processes from GCL to outer margin of ONL): 0.00%
N[C@@H](CC(=O)N1CCn2c(nnc2C(F)(F)F)C1)Cc1cc(F)c(F)cc1F [Sitagliptin, (R)-4-oxo-4-[3-(trifluoromethyl)-5,6-dihydro[1,2,4]triazolo[4,3-a]pyrazin-7(8H)-yl]-1-(2,4,5-trifluorophenyl)butan-2-amine]	significant increase	significant increase	significant prevention of apoptosis in all retinal layers	abrogating the downregulation of GLAST	prevented albumin leakage	≤ 3	significant decrease	prevented glutamate accumulation	sealing function of the BRB (db/db mouse [4]): preserved the sealing function of the BRB; functional abnormalities measured by ERG (db/db mouse [7]): prevented functional abnormalities; GFAP score distribution (Table 2), score 1 (db/db mouse [5]; sitagliptin eye drops for two weeks, score 1): 85.00; GFAP score distribution (Table 2), score 2 (db/db mouse [5]; sitagliptin eye drops for two weeks, score 2): 10.00; GFAP score distribution (Table 2), score 3 (db/db mouse [5]; sitagliptin eye drops for two weeks, score 3): 5.00; GFAP score distribution (Table 2), score 4 (db/db mouse [5]; sitagliptin eye drops for two weeks, score 4): 0.00; GFAP score distribution (Table 2), score 5 (db/db mouse [5]; sitagliptin eye drops for two weeks, score 5): 0.00
Cc1cc(-c2cc(O)ccc2Cl)cc2nnc(Nc3ccc(OCCN4CCCC4)cc3)nc12 [TG100572, 4-chloro-3-(5-methyl-3-{[4-(2-pyrrolidin-1-ylethoxy)phenyl]amino}-1,2,4-benzotriazin-7-yl)phenol]	–	–	–	–	–	–	–	–	reaching the target in the retina [8]: able to reach the target in the retina
